Several values for one entry are separate records, joined by “and”; a condition that tells them apart may be missing. Equal entries are not always repeated.
How the values were obtained:
Type in all cases: cell-based, human
TAS2R9 = test: RT-qPCR gene expression of TAS2R9 in HGT-1 cells; conditions: VAPFPEVF 17.5 µM, YFYPEL 0.03 µM, YQEPVLGPVRGPFPIIV 0.4 µM, normalized to PPIA and GAPDH and untreated cells, mean, n = 3–5
Procedure: (§1) For mRNA expression analysis, 800,000 cells were seeded in a T25 cell culture flask (25 cm^2) 1 day before the experiment. After incubation with 17.5 μM […], 0.03 μM YFYPEL, or 0.4 μM […] for 15, 30, 60, and 120 min, RNA was isolated using the peqGOLD RNA Kit (VWR Peqlab, USA) following the manufacturer’s protocol. Determination of RNA concentration (A260/A280 between 2.03 and 2.09) was performed on a NanoDrop One^c (Thermo Fisher Scientific Inc., USA). RNA integrity number (RIN 9.9–10.0, version 2.6, assay class Eukaryote Total RNA Nano) was analyzed using a 2100 Bioanalyzer (Agilent Technologies, USA). Removal of gDNA and synthesis of cDNA were performed using the iScript gDNA Clear cDNA Synthesis Kit (BioRad, Feldkirchen, Germany) following the manufacturer’s protocol. Real-time-qPCR (RT-qPCR) was performed with 50 ng cDNA amplified with SsoAdvanced Universal SYBR Green Supermix (Bio-Rad Laboratories, Inc., USA). The sequences of the forward and reverse primers of the 25 TAS2Rs were taken from Liszt et al.([13]) (Supporting Information Table-SI 3). Verified primers for the TAS1Rs (TAS1R1: qHsaCID0013443; TAS1R2: qHsaCID0016106; TAS1R3: qHsaCED0002321) and for MAPK1 (qHsaCEP0050000) were obtained from Bio-Rad Laboratories. PPIA[37] and GAPDH[38] were used as reference genes. The effects of the peptides on gene expression were analyzed in comparison to untreated control cells.

TAS2R38 = test: RT-qPCR gene expression of TAS2R38 in HGT-1 cells; conditions: VAPFPEVF 17.5 µM, YFYPEL 0.03 µM, YQEPVLGPVRGPFPIIV 0.4 µM, normalized to PPIA and GAPDH and untreated cells, mean, n = 3–5
Procedure: as §1, with “cells. […]” for “cells.”

TAS2R45 = test: RT-qPCR gene expression of TAS2R45 in HGT-1 cells; conditions: VAPFPEVF 17.5 µM, YFYPEL 0.03 µM, YQEPVLGPVRGPFPIIV 0.4 µM, normalized to PPIA and GAPDH and untreated cells, mean, n = 3–5
Procedure: as §1

TAS2R60 = test: RT-qPCR gene expression of TAS2R60 in HGT-1 cells; conditions: incubation 15/30/60/120 min, VAPFPEVF 17.5 µM, YFYPEL 0.03 µM, YQEPVLGPVRGPFPIIV 0.4 µM, expression not detectable with or without treatment
Procedure: as §1

TAS2R39 = test: RT-qPCR gene expression of TAS2R39 in HGT-1 cells; conditions: VAPFPEVF 17.5 µM, YFYPEL 0.03 µM, YQEPVLGPVRGPFPIIV 0.4 µM, normalized to PPIA and GAPDH and untreated cells, mean, n = 3–5
Procedure: as §1

TAS2R43 = test: RT-qPCR gene expression of TAS2R43 in HGT-1 cells; conditions: VAPFPEVF 17.5 µM, YFYPEL 0.03 µM, YQEPVLGPVRGPFPIIV 0.4 µM, normalized to PPIA and GAPDH and untreated cells, mean, n = 3–5
Procedure: as §1

Row | Substance | change in gene expression of TAS2R9 (TAS2R9; incubation 15 min) | change in gene expression of TAS2R9 (TAS2R9; incubation 30 min) | change in gene expression of TAS2R9 (TAS2R9; incubation 60 min) | change in gene expression of TAS2R9 (TAS2R9; incubation 120 min) | change in gene expression of TAS2R38 (TAS2R38; incubation 15 min) | change in gene expression of TAS2R38 (TAS2R38; incubation 30 min) | change in gene expression of TAS2R38 (TAS2R38; incubation 60 min) | change in gene expression of TAS2R38 (TAS2R38; incubation 120 min) | change in gene expression of TAS2R45 (TAS2R45; incubation 15 min) | change in gene expression of TAS2R45 (TAS2R45; incubation 30 min) | change in gene expression of TAS2R45 (TAS2R45; incubation 60 min) | change in gene expression of TAS2R45 (TAS2R45; incubation 120 min) | change in gene expression of TAS2R60 (TAS2R60) | change in gene expression of TAS2R39 (TAS2R39; incubation 15 min) | change in gene expression of TAS2R39 (TAS2R39; incubation 30 min) | change in gene expression of TAS2R39 (TAS2R39; incubation 60 min) | change in gene expression of TAS2R39 (TAS2R39; incubation 120 min) | change in gene expression of TAS2R43 (TAS2R43; incubation 15 min) | change in gene expression of TAS2R43 (TAS2R43; incubation 30 min) | change in gene expression of TAS2R43 (TAS2R43; incubation 60 min) | also measured
1 | YFYPEL [bitter casein peptide αS1-CN144–149] | 0.66 fold change | 2.64 fold change | 3.01 fold change | 1.41 fold change | 2.96 fold change | 3.40 fold change | 2.39 fold change | 2.91 fold change | 1.15 fold change | 0.54 fold change | 0.70 fold change | 0.94 fold change | not detected | 1.21 fold change | 0.42 fold change | 0.62 fold change | 0.45 fold change | 1.49 fold change | 0.64 fold change | 0.91 fold change | change in gene expression of TAS2R43 (TAS2R43; incubation 120 min): 1.02 fold change
2 | YQEPVLGPVRGPFPIIV [bitter casein peptide βA1/A2-CN193–209] | 0.43 fold change | 0.44 fold change | 1.91 fold change | 0.73 fold change | 2.01 fold change | 3.71 fold change | 2.05 fold change | 2.38 fold change | 0.63 fold change | 1.25 fold change | 1.06 fold change | 0.84 fold change | not detected | 0.53 fold change | 1.16 fold change | 0.73 fold change | 0.53 fold change | 0.69 fold change | 1.44 fold change | 1.15 fold change | change in gene expression of TAS2R43 (TAS2R43; incubation 120 min): 0.88 fold change
3 | VAPFPEVF [bitter casein peptide αS1-CN25–32] | 1.73 fold change | 1.08 fold change | 2.31 fold change | 0.99 fold change | 1.31 fold change | 2.42 fold change and 2.42 ± 0.55 fold change | 1.15 fold change | 2.45 fold change and 2.45 ± 0.26 fold change | 0.52 fold change | 1.08 fold change | 0.68 fold change | 1.17 fold change | not detected | 0.39 fold change | 1.37 fold change | 0.55 fold change | 1.16 fold change | 0.57 fold change | 1.14 fold change | 0.72 fold change | change in gene expression of TAS2R43 (TAS2R43; incubation 120 min): 1.49 fold change
